Assay results from US8609672B2, “Piperazinylpyrimidine analogues as protein kinase inhibitors” (University of the Pacific, priority 2010, dated 2013).

Assays:
[1] = test system: M0LT-4; assay: NCI-60 SRB growth inhibition: M0LT-4; type: cell-based, human; conditions: M0LT-4, Leukemia; 48 hours treatment
[2] = test system: EKVX; assay: NCI-60 SRB growth inhibition: EKVX; type: cell-based, human; conditions: Non-small cell lung cancer, 48 hours treatment; for CC50: Homo sapiens, read-out: LC50 (the source's name)
[3] = test system: NCI-H23; assay: NCI-60 SRB growth inhibition: NCI-H23; type: cell-based, human; conditions: NCI-H23, Non-small cell lung cancer; 48 hours treatment
[4] = test system: NCI-H322M; assay: NCI-60 SRB growth inhibition: NCI-H322M; type: cell-based, human; conditions: Non-small cell lung cancer, 48 hours treatment
[5] = test system: COLO 205; assay: NCI-60 SRB growth inhibition: COLO 205; type: cell-based, human; conditions: COLO 205, Colon cancer, 48 hours treatment; for CC50: Homo sapiens, read-out: LC50 (the source's name)
[6] = test system: KM12; assay: NCI-60 SRB growth inhibition: KM12; type: cell-based, human; conditions: KM12, Colon cancer, 48 hours treatment; for CC50: Homo sapiens, read-out: LC50 (the source's name)
[7] = test system: U251; assay: NCI-60 SRB growth inhibition: U251; type: cell-based, human; conditions: U251, CNS cancer, 48 hours treatment; for CC50: Homo sapiens, U-251, read-out: LC50 (the source's name)
[8] = test system: UACC-62; assay: NCI-60 SRB growth inhibition: UACC-62; type: cell-based, human; conditions: UACC-62, Melanoma; 48 hours treatment
[9] = test system: OVCAR-4; assay: NCI-60 SRB growth inhibition: OVCAR-4; type: cell-based, human; conditions: OVCAR-4, Ovarian cancer, 48 hours treatment; for CC50: Homo sapiens, read-out: LC50 (the source's name)
[10] = test system: A498; assay: NCI-60 SRB growth inhibition: A498; type: cell-based, human; conditions: A498, Renal cancer, 48 hours treatment; for CC50: Homo sapiens, read-out: LC50 (the source's name)
[11] = test system: ACHN; assay: NCI-60 SRB growth inhibition: ACHN; type: cell-based, human; conditions: Renal cancer, 48 hours treatment; for CC50: Homo sapiens, read-out: LC50 (the source's name)
[12] = test system: SN12C; assay: NCI-60 SRB growth inhibition: SN12C; type: cell-based, human; conditions: Renal cancer, 48 hours treatment; for CC50: Homo sapiens, read-out: LC50 (the source's name)
[13] = test system: TK-10; assay: NCI-60 SRB growth inhibition: TK-10; type: cell-based, human; conditions: TK-10, Renal cancer, 48 hours treatment; for CC50: Homo sapiens, read-out: LC50 (the source's name)
[14] = test system: BT-549; assay: NCI-60 SRB growth inhibition: BT-549; type: cell-based, human; conditions: for TGI: BT-549, Breast cancer, 48 hours treatment; for CC50: Homo sapiens, BT-549, 48 h, read-out: LC50 (the source's name)
[15] = test system: NCI-60 cell line panel; assay: NCI-60 SRB growth inhibition: mean over the panel; type: cell-based, human; conditions: mean over NCI-60 cell lines, 48 hours treatment; for GI50 / CC50: Homo sapiens; for CC50: read-out: Mean LC50
[16] = biological target: T1, CSNK1D (Homo sapiens, UniProt P48730); assay: Kinase binding screening: CSNK1D; conditions: 10 μM compound, read-out: B-POC (binding percentage of control)
T1 construct: purchased Ambit Bioscience (assay service)
T1 sequence (P48730 whole entry): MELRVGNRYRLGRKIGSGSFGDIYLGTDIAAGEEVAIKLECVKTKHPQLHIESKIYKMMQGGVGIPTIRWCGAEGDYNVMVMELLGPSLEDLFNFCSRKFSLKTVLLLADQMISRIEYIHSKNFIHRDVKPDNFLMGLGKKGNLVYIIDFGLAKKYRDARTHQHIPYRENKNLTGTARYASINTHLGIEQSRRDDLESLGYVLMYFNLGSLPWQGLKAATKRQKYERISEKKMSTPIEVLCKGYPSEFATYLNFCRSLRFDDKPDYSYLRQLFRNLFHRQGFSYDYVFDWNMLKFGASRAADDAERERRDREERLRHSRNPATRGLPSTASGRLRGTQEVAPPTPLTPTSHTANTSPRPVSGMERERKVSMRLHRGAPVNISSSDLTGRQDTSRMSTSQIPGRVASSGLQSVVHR
Method: Biotinylated kinase ligand was immobilized onto streptavidin coated magnetic beads and washed with blocking buffer. The liganded beads were then incubated with DNA-tagged kinase in the presence of test compound for 1 h at room temperature. Binding reactions were carried out in 20% Seablock, 0.17×PBS, 0.005% Tween 20, 6 mM DTT, in a final volume of 0.04 mL. Beads were then washed with wash buffer (PBS, 0.05% Tween 20), and then incubated with elution buffer (PBS, 0.05% Tween […] non-biotinylated kinase ligand) and eluted. The kinase concentration in the eluate was then measured by quantitative PCR. […] The results of this single dose screening are reported in the form of binding percentage of control (B-POC) which is defined as follows:
[formula] The negative control signal is obtained by the vehicle and corresponds to B-POC=100%. The positive signal control is detected by a binding positive compound and is B-POC 0%. The B-POC results are the average of duplicate measurements. Only interactions with […] were considered significant and thus used for calculating the selectivity scores (Table 1) of the test compounds as follows:
[formula] […] The Kd is then calculated according to the following equation:
[formula] hill slope=−1. A non-linear least square fit with the Levenberg-Marquardt algorithm was implemented to fit the curves (FIG. 3). Kinase binding assays were performed by Ambit Bioscience (San Diego, Calif., USA).
The results of kinase binding assay are shown in Table 1, which includes the B-POC values of 10 μM of compounds 4, 15, and 16 against the most sensitive kinases tested within this binding experiment. […] Kinases within the same subfamily are highlighted. […] Both the B-POC and Kd values are the average of duplicate measurements.
J. et al. Bioorganic and Medicinal Chemistry Letters 2009, 19, 1206-1209; Chao, Q. et al. Journal of Medicinal Chemistry 2009, 52, 7808-7816.). A single dose of 10 μM was chosen to allow for detecting kinases able to bind to the test compounds. In this binding assay, a set of 243 kinases were included. […]

[17] = biological target: T2, ABL kinase (Homo sapiens, UniProt P00519); assay: Functional kinase inhibition assay: ABL; type: biochemical; conditions: 1 μM compound
T2 construct: purchased Millipore Corp. (Dundee, UK; assay service)
T2 sequence (P00519 whole entry): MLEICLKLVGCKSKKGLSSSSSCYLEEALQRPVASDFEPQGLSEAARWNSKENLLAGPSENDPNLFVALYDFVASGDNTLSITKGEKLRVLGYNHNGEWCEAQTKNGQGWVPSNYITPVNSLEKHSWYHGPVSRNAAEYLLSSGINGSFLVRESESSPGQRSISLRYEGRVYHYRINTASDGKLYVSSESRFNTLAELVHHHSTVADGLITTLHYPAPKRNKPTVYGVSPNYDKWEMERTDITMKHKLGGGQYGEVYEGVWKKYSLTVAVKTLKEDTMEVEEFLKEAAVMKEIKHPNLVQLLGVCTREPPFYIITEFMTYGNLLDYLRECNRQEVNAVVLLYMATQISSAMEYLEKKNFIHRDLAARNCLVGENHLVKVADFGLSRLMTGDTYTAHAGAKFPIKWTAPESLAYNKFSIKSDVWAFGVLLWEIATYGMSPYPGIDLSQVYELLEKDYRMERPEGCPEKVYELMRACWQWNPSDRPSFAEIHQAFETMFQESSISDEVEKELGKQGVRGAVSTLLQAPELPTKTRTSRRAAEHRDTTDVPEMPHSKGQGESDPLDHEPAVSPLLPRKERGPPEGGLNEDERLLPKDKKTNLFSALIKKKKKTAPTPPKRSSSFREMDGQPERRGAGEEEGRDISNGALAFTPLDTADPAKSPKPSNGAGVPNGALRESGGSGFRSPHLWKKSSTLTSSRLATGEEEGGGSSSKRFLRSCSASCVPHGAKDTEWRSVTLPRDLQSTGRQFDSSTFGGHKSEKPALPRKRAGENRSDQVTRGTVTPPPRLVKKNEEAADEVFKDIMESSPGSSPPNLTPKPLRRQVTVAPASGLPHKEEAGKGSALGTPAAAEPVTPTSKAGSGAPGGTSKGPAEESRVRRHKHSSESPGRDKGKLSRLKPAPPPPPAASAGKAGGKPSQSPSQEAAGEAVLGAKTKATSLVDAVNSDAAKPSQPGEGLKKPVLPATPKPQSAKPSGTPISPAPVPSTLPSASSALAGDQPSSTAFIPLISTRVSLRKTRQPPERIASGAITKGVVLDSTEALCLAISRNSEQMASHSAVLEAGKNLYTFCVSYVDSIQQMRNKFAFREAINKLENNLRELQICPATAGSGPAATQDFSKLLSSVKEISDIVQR
Method: [formula] The assay was performed in duplicates.
The results of kinase function inhibition assay are shown in Table 6, including the F-POC of 1 μM of compounds 4, 15, and 16 against the most sensitive kinases tested within this experiment. […] Kinases within the same subfamily are highlighted.

SMILES	TGI [1]	CC50 [2]	TGI [2]	TGI [3]	TGI [4]	TGI [5]	CC50 [5]	CC50 [6]	TGI [6]	CC50 [7]	TGI [7]	TGI [8]	CC50 [9]	TGI [9]	TGI [10]	CC50 [10]	CC50 [11]	TGI [11]	CC50 [12]	TGI [12]	further results
c1ccc(Cc2cnc(N3CCN(c4ncnc5ccccc45)CC3)nc2)cc1 [Compound 4, 4-(4-(5-benzylpyrimidin-2-yl)piperazin-1-yl)quinazoline]	40.60 µM	> 100 µM	33.10 µM	30.80 µM	>100 µM	>100 µM	> 100 µM	50.1 µM	25.10 µM	54.1 µM	24.60 µM	25.90 µM	> 100 µM	>100 µM	24.20 µM	50.1 µM	> 100 µM	42.40 µM	54.8 µM	24.40 µM	CC50 [13]: > 100 µM; TGI [13]: 60.80 µM; TGI [14]: 18.40 µM; CC50 [14]: 43 µM; GI50 [15]: 5.24 µM; CC50 [15]: 81.3 µM; Mean TGI [15]: 37.15 µM; remaining activity at 10 µM [16]: 26%; inhibitory action over ABL kinase function [17]: without affecting ABL subfamily members
CCc1cnc(N2CCN(C(=O)c3ccc(CNc4ncnc5ccccc45)cc3)CC2)nc1 [Compound 15, (4-(5-ethylpyrimidin-2-yl)piperazin-1-yl)(4-((quinazolin-4-ylamino)methyl)phenyl)methanone]	27.60 µM	> 100 µM	61.40 µM	33.30 µM	>100 µM	38.20 µM	> 100 µM	53.8 µM	24.30 µM	> 100 µM	>100 µM	80.90 µM	> 100 µM	58.80 µM	>100 µM	> 100 µM	> 100 µM	82.50 µM	> 100 µM	59.00 µM	CC50 [13]: > 100 µM; TGI [13]: >100 µM; TGI [14]: 10.70 µM; CC50 [14]: > 100 µM; GI50 [15]: 4.46 µM; CC50 [15]: > 100 µM; Mean TGI [15]: 51.28 µM; remaining activity at 10 µM [16]: 23%; inhibitory action over ABL kinase function [17]: weak inhibitory action
O=C(c1cccc(Nc2ncnc3ccccc23)c1)N1CCN(c2ncc(Cc3ccccc3)cn2)CC1 [Compound 16, (4-(5-benzylpyrimidin-2-yl)piperazin-1-yl)(3-(quinazolin-4-ylamino)phenyl)methanone]	1.34 µM	> 100 µM	4.90 µM	2.69 µM	4.79 µM	2.75 µM	5.5 µM	6.61 µM	2.40 µM	> 100 µM	6.61 µM	1.86 µM	7.59 µM	1.95 µM	5.37 µM	> 100 µM	> 100 µM	4.57 µM	> 100 µM	7.08 µM	CC50 [13]: 39.8 µM; TGI [13]: 6.17 µM; TGI [14]: 1.74 µM; CC50 [14]: 5.37 µM; GI50 [15]: 1.05 µM; Mean TGI [15]: 3.24 µM; remaining activity at 10 µM [16]: 22%; inhibitory action over ABL kinase function [17]: weak inhibitory action
